The values below come from article PMC3170513 (Neuropeptides, 2011).

For assay [1], the system named is 125I-CART 61-102 specific binding in PC12 cells. Briefly: Effect of differentiation. To be noted: 5 nM radioligand; for effect of inhibitors on specific binding, undifferentiated cells: undifferentiated PC12 cells, 6 hours, CHX 10 ug/ml, ActiD 2 mM, CytoD 4 mM, n=3 – 5. It counts as cell-based, Rat.
Assay [2] concerns ERK signaling in AtT20 cells. To be noted: ref Lakatos et al., 2005; cited from earlier work.
Assay [3] relates to voltage dependant Ca++ signaling in hippocampal cells. Particulars: hippocampal cells in culture; ref Yermolaieva et al., 2001; cited from earlier work.
In assay [4] the test system is phospho-ERK in PC12 cells. As to the kind of experiment: ERK activation. It counts as cell-based, Rat. To be noted: for inhibition of CART-induced phospho-ERK (general, in words): pertussis toxin.
For assay [5], the system named is CART binding in nucleus accumbens neurons. Particulars: primary cell cultures; ref Jones and Kuhar, 2008; cited from earlier work.
Assay [6] deals with CART binding in PC12 cells. To be noted: ref Maixnerova et al., 2007, Maletinska et al.; cited from earlier work.

Starred links: 1 amine or outer side, 2 acyl side, 3 side chain; linkers in the order of their positions; H or OH if unused. Positions of bridges follow the written chain, without caps; N, C: chain ends. Non-standard residues stand in square brackets, D forms with d. Residues, ends and D or L forms follow the SMILES beside them. Chains are numbered I, II in the order given. Actinocin(9to1) = Cc1c2oc3c(C)ccc(C(=O)[*:1])c3nc-2c(C(=O)[*:2])c(N)c1=O; NMeV = CN[C@H](C(=O)O)C(C)C; Sar = CNCC(=O)O

`C[C@@H]1C[C@@H]([C@H](O)CC2CC(=O)NC(=O)C2)C(=O)[C@@H](C)C1` [CHX, Cycloheximide]: the “effect of inhibitors on specific binding, undifferentiated cells” value in assay [1] is recorded as “none of the inhibitors had any effects”.
Consider `Cc1c2oc3c(C)ccc(C(=O)N[C@@H]4C(=O)N[C@H](C(C)C)C(=O)N5CCC[C@H]5C(=O)N(C)CC(=O)N(C)[C@@H](C(C)C)C(=O)O[C@@H]4C)c3nc-2c(C(=O)N[C@@H]2C(=O)N[C@H](C(C)C)C(=O)N3CCC[C@H]3C(=O)N(C)CC(=O)N(C)[C@@H](C(C)C)C(=O)O[C@@H]2C)c(N)c1=O` [ActiD, Actinomycin D] (I: T[dV]P[Sar][NMeV] / II: T[dV]P[Sar][NMeV]; ester I:1-I:C, II:1-II:C; linker I:N-II:N via Actinocin(9to1)), for which the “effect of inhibitors on specific binding, undifferentiated cells” value in assay [1] is “none of the inhibitors had any effects”.
With Pertussin Toxin [PTX], in assay [2], the “ERK signaling in AtT20 cells” value was “reduced”. In assay [3], the “effect on voltage dependant Ca++ signaling” value was “blocked”. Further, the “inhibition of CART-induced phospho-ERK (general, in words)” value in assay [4] (PC12 cells) is “reduced”; in assay [4] (PC12 cells, listed as pertussis toxin), “blocked”. Moreover, the “inhibition of CART-induced phospho-ERK, N-differentiated cells” value in assay [4] (PTX 200ng/m, at least 16 hrs, N 3 days, CART 61-102 0.3 µM) is reported as “prevented”. The “inhibition of CART-induced phospho-ERK, N + P-differentiated cells” value in assay [4] (PTX 200ng/m, at least 16 hrs, N + P 3 days, CART 61-102 0.3 µM) is “inhibited”. For the same molecule, the “inhibition of CART-induced phospho-ERK, undifferentiated cells” value in assay [4] (PTX 200ng/m, at least 16 hrs, undifferentiated PC12 cells, CART 0.3 µM) is “inhibited”. Further, in assay [4] (PTX alone vs control, PC12 cells), the “effect of PTX alone on phospho-ERK” value was “no inhibitory effect compared to control”.
Consider `C=C1[C@@H](C)[C@H]2[C@H](Cc3ccccc3)NC(=O)[C@]23[C@H](OC(C)=O)/C=C/[C@@](C)(O)C(=O)[C@@H](C)C/C=C/[C@H]3[C@@H]1O` [CytoD, Cytochalasin D], for which the “effect of inhibitors on specific binding, undifferentiated cells” value in assay [1] is recorded as “none of the inhibitors had any effects”.
`Nc1nc2c(ncn2[C@@H]2O[C@H](COP(=O)(O)OP(=O)(O)OP(=O)(O)O)[C@@H](O)[C@H]2O)c(=O)[nH]1` [GTP]: the “specific binding in nucleus accumbens neurons and effect of nucleotides on it” value in assay [5] is recorded as “reduced the binding of CART peptide”.

B1: Nerve Growth Factor 2.5S (protein, UniProt P01139 122-241, looked up)
Beta-nerve growth factor: SSTHPVFHMGEFSVCDSVSVWVGDKTTATDIKGKEVTVLAEVNINNSVFRQYFFETKCRASNPVESGCRGIDSKHWNSYCTTTHTFVKALTTDEKQAAWRFIRIDTACVCVLSRKATRRG
modifications: Beta-nerve growth factor
With B1, the “change of specific 125I-CART 61-102 binding over 1-3 days of differentiation” value in assay [1] (NGF 50ng/mL and/or PACAP 100nM, 1, 2, 3 days, N = 3 – 5) was “increased”. Further, the “specific binding in PC12 cells” value in assay [6] was “increased after differentiation”. Also, the “phospho-ERK stimulation, positive controls” value in assay [4] (acute treatment, undifferentiated and differentiated PC12 cells, data not shown) was “increased ERK phosphorylation”.
